What all share (assay): chemoproteomic target identification by competition binding – cell lysate, SILAC, HepG2 extract, LC-MS/MS, mechanism study for Trib1 inducer project, late-stage follow-up (AID 1053157)
In test [1] the target is Ran-binding protein 6 (UniProt O60518).
Test [2] has as its target NADH dehydrogenase [ubiquinone] 1 alpha subcomplex subunit 6 (Homo sapiens) (UniProt P56556).
The target of test [3] is Protein zwilch homolog (UniProt Q9H900).
In test [4] the target is Prenylcysteine oxidase 1 (UniProt Q9UHG3).
For test [5], the target named is Ferroptosis suppressor protein 1 (Homo sapiens) (UniProt Q9BRQ8). The settings on record: Apoptosis-inducing factor.
The target of test [6] is Ubiquitin carboxyl-terminal hydrolase 34 (UniProt Q70CQ2).

Kd data for one molecule are collected here from PubChem BioAssay AID1053157 (Broad Institute, 2014).

Sequence of Ferroptosis suppressor protein 1 (Homo sapiens) (Q9BRQ8 whole entry, looked up): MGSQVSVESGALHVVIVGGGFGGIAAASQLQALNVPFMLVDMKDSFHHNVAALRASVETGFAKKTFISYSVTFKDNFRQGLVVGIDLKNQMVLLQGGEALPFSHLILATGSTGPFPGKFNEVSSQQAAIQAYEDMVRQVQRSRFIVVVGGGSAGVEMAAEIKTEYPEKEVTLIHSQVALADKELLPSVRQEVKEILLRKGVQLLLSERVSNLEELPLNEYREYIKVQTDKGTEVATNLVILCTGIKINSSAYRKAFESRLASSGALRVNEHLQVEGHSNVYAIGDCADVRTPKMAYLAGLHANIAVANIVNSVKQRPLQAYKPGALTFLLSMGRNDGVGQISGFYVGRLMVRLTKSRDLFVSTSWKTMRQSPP
Sequence of NADH dehydrogenase [ubiquinone] 1 alpha subcomplex subunit 6 (Homo sapiens) (P56556 whole entry, looked up, one chain of several): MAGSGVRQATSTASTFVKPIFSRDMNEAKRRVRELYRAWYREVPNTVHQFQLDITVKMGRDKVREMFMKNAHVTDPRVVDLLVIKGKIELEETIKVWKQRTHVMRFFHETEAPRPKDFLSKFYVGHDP
Sequence of Prenylcysteine oxidase 1 (Q9UHG3 whole entry, looked up): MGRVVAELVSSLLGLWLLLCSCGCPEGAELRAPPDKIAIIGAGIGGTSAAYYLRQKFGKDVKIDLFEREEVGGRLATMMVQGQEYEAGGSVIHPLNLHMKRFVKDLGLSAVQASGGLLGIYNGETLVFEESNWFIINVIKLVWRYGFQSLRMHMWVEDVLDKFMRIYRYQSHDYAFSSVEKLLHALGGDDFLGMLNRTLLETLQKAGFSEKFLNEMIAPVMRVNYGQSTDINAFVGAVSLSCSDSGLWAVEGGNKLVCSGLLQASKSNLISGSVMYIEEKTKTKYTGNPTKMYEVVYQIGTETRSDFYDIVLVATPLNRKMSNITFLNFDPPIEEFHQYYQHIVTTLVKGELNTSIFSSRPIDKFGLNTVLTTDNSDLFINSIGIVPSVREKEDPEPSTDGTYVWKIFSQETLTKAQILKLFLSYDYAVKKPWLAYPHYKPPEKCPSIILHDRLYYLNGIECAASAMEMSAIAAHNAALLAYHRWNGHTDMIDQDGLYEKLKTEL
Sequence of Protein zwilch homolog (Q9H900 whole entry, looked up): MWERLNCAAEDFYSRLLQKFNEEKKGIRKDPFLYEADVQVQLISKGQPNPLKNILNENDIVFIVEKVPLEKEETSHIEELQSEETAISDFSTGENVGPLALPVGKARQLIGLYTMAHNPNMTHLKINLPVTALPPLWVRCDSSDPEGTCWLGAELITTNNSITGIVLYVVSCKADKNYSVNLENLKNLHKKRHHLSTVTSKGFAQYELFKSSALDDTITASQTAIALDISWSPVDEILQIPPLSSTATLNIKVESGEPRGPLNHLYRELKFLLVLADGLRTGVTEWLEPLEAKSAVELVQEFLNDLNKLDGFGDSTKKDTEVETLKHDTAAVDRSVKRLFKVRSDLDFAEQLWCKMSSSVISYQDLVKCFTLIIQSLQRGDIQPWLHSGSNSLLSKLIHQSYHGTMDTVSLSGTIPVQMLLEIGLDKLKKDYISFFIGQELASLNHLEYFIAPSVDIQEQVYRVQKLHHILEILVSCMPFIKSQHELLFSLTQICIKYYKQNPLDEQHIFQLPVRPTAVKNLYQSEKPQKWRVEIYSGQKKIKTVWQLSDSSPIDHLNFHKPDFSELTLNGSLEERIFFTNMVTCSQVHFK
Sequence of Ran-binding protein 6 (O60518 whole entry, looked up): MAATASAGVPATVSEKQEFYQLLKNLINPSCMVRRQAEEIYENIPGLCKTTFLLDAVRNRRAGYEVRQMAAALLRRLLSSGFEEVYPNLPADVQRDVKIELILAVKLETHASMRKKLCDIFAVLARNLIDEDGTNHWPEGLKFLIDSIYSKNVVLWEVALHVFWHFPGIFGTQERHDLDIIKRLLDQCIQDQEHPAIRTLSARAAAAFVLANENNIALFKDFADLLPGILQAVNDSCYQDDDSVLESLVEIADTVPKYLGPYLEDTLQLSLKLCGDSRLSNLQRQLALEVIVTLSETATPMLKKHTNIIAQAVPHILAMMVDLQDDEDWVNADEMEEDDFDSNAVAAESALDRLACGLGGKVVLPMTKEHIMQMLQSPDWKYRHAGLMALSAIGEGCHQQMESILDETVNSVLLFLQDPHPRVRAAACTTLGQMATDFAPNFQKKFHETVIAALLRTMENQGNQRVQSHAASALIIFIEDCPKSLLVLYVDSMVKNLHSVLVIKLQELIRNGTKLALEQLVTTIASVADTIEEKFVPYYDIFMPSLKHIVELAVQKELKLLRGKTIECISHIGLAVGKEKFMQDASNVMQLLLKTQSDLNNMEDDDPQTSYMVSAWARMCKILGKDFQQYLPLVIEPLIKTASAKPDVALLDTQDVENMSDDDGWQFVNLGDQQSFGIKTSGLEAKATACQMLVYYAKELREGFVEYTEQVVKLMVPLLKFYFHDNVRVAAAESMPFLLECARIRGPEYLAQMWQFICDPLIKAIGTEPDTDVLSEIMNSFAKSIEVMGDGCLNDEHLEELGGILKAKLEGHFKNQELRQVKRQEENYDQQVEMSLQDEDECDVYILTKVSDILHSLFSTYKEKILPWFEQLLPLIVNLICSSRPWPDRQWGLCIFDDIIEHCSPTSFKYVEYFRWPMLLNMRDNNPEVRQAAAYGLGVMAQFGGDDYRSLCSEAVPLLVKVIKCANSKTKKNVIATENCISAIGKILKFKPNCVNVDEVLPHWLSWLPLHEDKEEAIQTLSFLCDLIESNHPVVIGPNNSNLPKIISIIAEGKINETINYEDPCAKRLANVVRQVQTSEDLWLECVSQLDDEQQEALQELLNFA

As a reminder, the Kd is the free concentration of one partner at which half of the binding sites on the other are occupied at equilibrium, for simple one-to-one binding. Read a high Kd as a looser complex. Take `CN1C(=O)c2cc(NC(=O)c3ccc(C(F)(F)F)cc3)ccc2OC[C@@H]2O[C@H](CC(=O)NC3Cc4ccccc4C3)CC[C@@H]21`: the Kd in test [1] came to 25.6 µM; in test [2] it was 29.3 µM; in test [3], 18.4 µM; in test [4], 10.2 µM; in test [5], 26.7 µM; in test [6], 25.7 µM.
